Assay results reported in ChEMBL document CHEMBL4002584, “Synthesis and antibacterial activities of novel pleuromutilin derivatives with a substituted pyrimidine moiety” (2017).
Converted amounts (≈) assume the structure as drawn.

Tests used:
Assay type in all cases: functional
[1] = tested on: Staphylococcus aureus; test: Antibacterial activity against […] Staphylococcus aureus ATCC 29213 after 24 to 48 hrs by agar dilution method
[2] = tested on: Staphylococcus aureus; test: Antibacterial activity against […] Staphylococcus aureus ATCC 33591 after 24 to 48 hrs by agar dilution method
[3] = tested on: Staphylococcus aureus; test: Antibacterial activity against Staphylococcus aureus CMCC (B) 26003 after 24 to 48 hrs by agar dilution method
[4] = tested on: Bacillus subtilis; test: Antibacterial activity against Bacillus subtilis CMCC (B) 63501 after 24 to 48 hrs by agar dilution method
[5] = tested on: Escherichia coli; test: Antibacterial activity against Escherichia coli CMCC (B) 44102 after 24 to 48 hrs by agar dilution method
[6] = tested on: Staphylococcus aureus; test: Antibacterial activity against […] Staphylococcus aureus ATCC 29213 at 320 ug/ml after 24 to 36 hrs by oxford cup assay; conditions: read-out: DIZ
[7] = tested on: Staphylococcus aureus; test: Antibacterial activity against […] Staphylococcus aureus ATCC 29213 at 160 ug/ml after 24 to 36 hrs by oxford cup assay; conditions: read-out: DIZ
[8] = tested on: Staphylococcus aureus; test: Antibacterial activity against […] Staphylococcus aureus ATCC 33591 at 320 ug/ml after 24 to 36 hrs by oxford cup assay; conditions: read-out: DIZ
[9] = tested on: Staphylococcus aureus; test: Antibacterial activity against […] Staphylococcus aureus ATCC 33591 at 160 ug/ml after 24 to 36 hrs by oxford cup assay; conditions: read-out: DIZ
[10] = tested on: Staphylococcus aureus; test: Antibacterial activity against Staphylococcus aureus CMCC (B) 26003 at 320 ug/ml after 24 to 36 hrs by oxford cup assay; conditions: read-out: DIZ
[11] = tested on: Staphylococcus aureus; test: Antibacterial activity against Staphylococcus aureus CMCC (B) 26003 at 160 ug/ml after 24 to 36 hrs by oxford cup assay; conditions: read-out: DIZ
[12] = tested on: Bacillus subtilis; test: Antibacterial activity against Bacillus subtilis CMCC (B) 63501 at 320 ug/ml after 24 to 36 hrs by oxford cup assay; conditions: read-out: DIZ
[13] = tested on: Bacillus subtilis; test: Antibacterial activity against Bacillus subtilis CMCC (B) 63501 at 160 ug/ml after 24 to 36 hrs by oxford cup assay; conditions: read-out: DIZ
[14] = tested on: Escherichia coli; test: Antibacterial activity against Escherichia coli CMCC (B) 44102 at 320 ug/ml after 24 to 36 hrs by oxford cup assay; conditions: read-out: DIZ
[15] = tested on: Escherichia coli; test: Antibacterial activity against Escherichia coli CMCC (B) 44102 at 160 ug/ml after 24 to 36 hrs by oxford cup assay; conditions: read-out: DIZ
[16] = tested on: Staphylococcus aureus; test: Bactericidal activity against Staphylococcus aureus CMCC (B) 26003 after 1 to 24 hrs by time-kill assay
[17] = tested on: Staphylococcus aureus; test: Bactericidal activity against Staphylococcus aureus CMCC (B) 26003 at 6 times MIC after 4 hrs by time-kill assay relative to control
[18] = tested on: Staphylococcus aureus; test: Bactericidal activity against Staphylococcus aureus CMCC (B) 26003 assessed as bacterial level at MIC after 1 to 24 hrs by time-kill assay
[19] = tested on: Staphylococcus aureus; test: Bactericidal activity against […] Staphylococcus aureus ATCC 29213 after 1 to 24 hrs by time-kill assay
[20] = tested on: Staphylococcus aureus; test: Ratio of MIC for […] Staphylococcus aureus ATCC 29213 to MIC for Staphylococcus aureus CMCC (B) 26003
[21] = tested on: Staphylococcus aureus; test: Antibacterial activity against […] Staphylococcus aureus ATCC 29213 in iv dosed Balb/c mouse systemic infection model assessed as increase in mouse survival after 7 days; conditions: for ED50: ATCC 29213, iv, 168 h

Row | SMILES | MIC [1] [µg/mL] | MIC [2] [µg/mL] | MIC [3] [µg/mL] | MIC [4] [µg/mL] | MIC [5] [µg/mL] | zone of inhibition at 320 µg/mL [6] [mm] | zone of inhibition at 160 µg/mL [7] [mm] | zone of inhibition at 320 µg/mL [8] [mm] | zone of inhibition at 160 µg/mL [9] [mm] | zone of inhibition at 320 µg/mL [10] [mm] | zone of inhibition at 160 µg/mL [11] [mm] | zone of inhibition at 320 µg/mL [12] [mm] | zone of inhibition at 160 µg/mL [13] [mm] | zone of inhibition at 320 µg/mL [14] [mm] | zone of inhibition at 160 µg/mL [15] [mm] | Activity [16] | fold change (FC) [17] | Activity [18] | Activity [19] | Activity [21] | other results
1 | C=C[C@]1(C)C[C@@H](OC(=O)CSc2nc(N)cc(NC(=O)CN3CCC(O)CC3)n2)[C@]2(C)[C@H](C)CC[C@]3(CCC(=O)[C@H]32)[C@@H](C)[C@@H]1O | 0.25 (≈ 0.388 µM) | 0.25 (≈ 0.388 µM) | 0.125 (≈ 0.194 µM) | 2 (≈ 3.11 µM) | 4 (≈ 6.21 µM) | 30.5 | 21 | 34.4 | 23.5 | 30.6 | 21.1 | 16.1 | 13.6 | 11.4 | 8.54 |  |  |  |  |  | 
2 | C=C[C@]1(C)C[C@@H](OC(=O)CSc2nc(N)cc(N)n2)[C@]2(C)[C@H](C)CC[C@]3(CCC(=O)[C@H]32)[C@@H](C)[C@@H]1O | 0.125 (≈ 0.249 µM) | 0.0625 (≈ 0.124 µM) | 0.0625 (≈ 0.124 µM) | 2 (≈ 3.98 µM) | 2 (≈ 3.98 µM) | 33.5 | 24.7 | 35.8 | 24.2 | 38.3 | 25.8 | 21.9 | 17.4 | 14.2 | 11.4 | Dose-dependent effect | >6 | 3 - 4 log10CFU/ml | Dose-dependent effect | Dose-dependent effect | Ratio [20]: 2; ED50 [21]: 4.22 mg/kg
3 | C=C[C@]1(C)C[C@@H](OC(=O)CSCCN(CC)CC)[C@]2(C)[C@H](C)CC[C@]3(CCC(=O)[C@H]32)[C@@H](C)[C@@H]1O [TIAMULIN] | 0.25 (≈ 0.506 µM) | 0.125 (≈ 0.253 µM) | 0.0625 (≈ 0.127 µM) | 2 (≈ 4.05 µM) | 4 (≈ 8.1 µM) | 29.4 | 22.9 | 33.9 | 20.2 | 37.9 | 26.1 | 21.3 | 17.4 | 13.3 | 9.42 | Dose-dependent effect | >6 | 3 - 4 log10CFU/ml | Dose-dependent effect | Dose-dependent effect | ED50 [21]: 5.94 mg/kg
4 | C=C[C@]1(C)C[C@@H](OC(=O)CSc2nc(N)cc(NC(=O)CN3CCC(CCO)CC3)n2)[C@]2(C)[C@H](C)CC[C@]3(CCC(=O)[C@H]32)[C@@H](C)[C@@H]1O | 1 (≈ 1.49 µM) | 0.5 (≈ 0.744 µM) | 0.125 (≈ 0.186 µM) | 2 (≈ 2.98 µM) | 8 (≈ 11.9 µM) | 24.9 | 18.3 | 32.4 | 21.6 | 33.6 | 24 | 17.3 | 15.6 | 12.7 | 10.6 |  |  |  |  |  | 
5 | C=C[C@]1(C)C[C@@H](OC(=O)CSc2nc(N)cc(NC(=O)CN(C)C)n2)[C@]2(C)[C@H](C)CC[C@]3(CCC(=O)[C@H]32)[C@@H](C)[C@@H]1O | 1 (≈ 1.7 µM) | 0.5 (≈ 0.851 µM) | 0.25 (≈ 0.425 µM) | 4 (≈ 6.81 µM) | 8 (≈ 13.6 µM) | 25.4 | 18.9 | 22.4 | 18 | 34.2 | 21.8 | 17.5 | 13.9 | 12.1 | 9.55 |  |  |  |  |  | 
6 | C=C[C@]1(C)C[C@@H](OC(=O)CSc2nc(N)cc(NC(=O)CN3CCC[C@@H](CO)C3)n2)[C@]2(C)[C@H](C)CC[C@]3(CCC(=O)[C@H]32)[C@@H](C)[C@@H]1O | 0.125 (≈ 0.19 µM) | 0.125 (≈ 0.19 µM) | 0.0625 (≈ 0.095 µM) | 1 (≈ 1.52 µM) | 4 (≈ 6.08 µM) | 34.4 | 26.5 | 35.1 | 25.8 | 38.1 | 25.9 | 22.2 | 17.7 | 13.3 | 10.3 |  |  |  |  |  | 
